Several values for one entry are separate records, joined by “and”; a condition that tells them apart may be missing. Equal values may be shown once.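 Results reflect a 48-hour exposure of cells in 96-well plates to compound at five concentrations. GI50: concentration for 50% inhibition of growth. TGI marks complete inhibition of growth.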
How the values were obtained:
Test in all cases: NCI tumour cell line growth inhibition, 48 h
HCT-15 colon = system: HCT-15 colon
HOP-92 NSCLC = system: HOP-92 NSCLC
HOP-18 NSCLC = system: HOP-18 NSCLC
ACHN renal = system: ACHN renal
CCRF-CEM leukemia = system: CCRF-CEM leukemia
A498 renal = system: A498 renal
OVCAR-3 ovarian = system: OVCAR-3 ovarian
SK-MEL-2 melanoma = system: SK-MEL-2 melanoma
MCF7 breast = system: MCF7 breast
SNB-78 CNS = system: SNB-78 CNS
SK-MEL-28 melanoma = system: SK-MEL-28 melanoma
HT29 colon = system: HT29 colon
HCT-116 colon = system: HCT-116 colon
M19-MEL melanoma = system: M19-MEL melanoma
DMS 114 small cell lung = system: DMS 114 small cell lung
HCC-2998 colon = system: HCC-2998 colon
MALME-3M melanoma = system: MALME-3M melanoma
COLO 205 colon = system: COLO 205 colon
SK-MEL-5 melanoma = system: SK-MEL-5 melanoma
SR leukemia = system: SR leukemia
EKVX NSCLC = system: EKVX NSCLC
RPMI-8226 leukemia = system: RPMI-8226 leukemia
NCI-H522 lung = system: NCI-H522 lung
TK-10 renal = system: TK-10 renal
KM12 colon = system: KM12 colon
P388 leukemia = system: P388 leukemia
IGROV1 ovarian = system: IGROV1 ovarian
SNB-19 CNS = system: SNB-19 CNS
SK-OV-3 ovarian = system: SK-OV-3 ovarian
A549 NSCLC = system: A549 NSCLC
SW-620 colon = system: SW-620 colon
786-0 renal = system: 786-0 renal
MOLT-4 leukemia = system: MOLT-4 leukemia
NCI-H23 lung = system: NCI-H23 lung
P388/ADR leukemia = system: P388/ADR leukemia
UACC-257 melanoma = system: UACC-257 melanoma
PC-3 prostate = system: PC-3 prostate
OVCAR-4 ovarian = system: OVCAR-4 ovarian
HL-60(TB) leukemia = system: HL-60(TB) leukemia
DMS 273 small cell lung = system: DMS 273 small cell lung
DU-145 prostate = system: DU-145 prostate
T-47D breast = system: T-47D breast
DLD-1 colon = system: DLD-1 colon
SF-295 CNS = system: SF-295 CNS
LXFL 529 NSCLC = system: LXFL 529 NSCLC
BT-549 breast = system: BT-549 breast
SF-539 CNS = system: SF-539 CNS
K-562 leukemia = system: K-562 leukemia
OVCAR-5 ovarian = system: OVCAR-5 ovarian
KM20L2 colon = system: KM20L2 colon
OVCAR-8 ovarian = system: OVCAR-8 ovarian
MDA-MB-435 = system: MDA-MB-435
SN12C renal = system: SN12C renal
SNB-75 CNS = system: SNB-75 CNS
MDA-N = system: MDA-N
HOP-62 NSCLC = system: HOP-62 NSCLC
MDA-MB-231 breast = system: MDA-MB-231 breast
XF 498 CNS = system: XF 498 CNS
M14 melanoma = system: M14 melanoma
U251 CNS = system: U251 CNS
UACC-62 melanoma = system: UACC-62 melanoma
NCI-H226 lung = system: NCI-H226 lung
LOX IMVI melanoma = system: LOX IMVI melanoma
NCI/ADR-RES ovarian = system: NCI/ADR-RES ovarian
RXF 393 renal = system: RXF 393 renal
SF-268 CNS = system: SF-268 CNS
CAKI-1 renal = system: CAKI-1 renal
NCI-H460 lung = system: NCI-H460 lung
UO-31 renal = system: UO-31 renal
SN12K1 renal = system: SN12K1 renal

## COc1cc(C2c3cc4c(cc3[C@@H](Nc3ccc(F)cc3)C3COC(=O)[C@H]23)OCO4)cc(OC)c1O (stereo not given in full)
HCT-15 colon
  TGI: 26.1 µM
HOP-92 NSCLC
  TGI: 24.8 µM
HOP-18 NSCLC
  TGI: 46.8 µM
ACHN renal
  GI50: 0.326 µM
  TGI: 3.39 µM
CCRF-CEM leukemia
  GI50: 0.201 µM and 0.347 µM
  TGI: 19.6 µM
A498 renal
  GI50: 0.878 µM
  TGI: 7.84 µM
OVCAR-3 ovarian
  TGI: 29.5 µM
SK-MEL-2 melanoma
  TGI: 19.2 µM
MCF7 breast
  TGI: > 65.2 µM
SNB-78 CNS
  TGI: 99.2 µM
SK-MEL-28 melanoma
  TGI: 48.3 µM
HT29 colon
  TGI: 18.2 µM
HCT-116 colon
  TGI: 22.3 µM
M19-MEL melanoma
  TGI: 42.8 µM
DMS 114 small cell lung
  GI50: 0.997 µM
  TGI: 9.63 µM
HCC-2998 colon
  TGI: 8.96 µM
MALME-3M melanoma
  TGI: 13.4 µM
COLO 205 colon
  TGI: 15.6 µM
SK-MEL-5 melanoma
  GI50: 0.806 µM
  TGI: 8.56 µM
SR leukemia
  GI50: 0.0567 µM
  TGI: 0.612 µM and 4.27 µM
EKVX NSCLC
  TGI: 12.5 µM
RPMI-8226 leukemia
  GI50: 0.531 µM
  TGI: 17.1 µM
NCI-H522 lung
  GI50: 0.823 µM
  TGI: 9.12 µM
TK-10 renal
  TGI: 14.8 µM
KM12 colon
  TGI: 13.5 µM
P388 leukemia
  TGI: 1.61 µM
IGROV1 ovarian
  TGI: 42.2 µM
SNB-19 CNS
  GI50: 0.569 µM
  TGI: 33.9 µM
SK-OV-3 ovarian
  TGI: 21 µM
A549 NSCLC
  GI50: 0.264 µM
  TGI: 5.17 µM
SW-620 colon
  GI50: 0.859 µM
  TGI: 44.8 µM
786-0 renal
  GI50: 0.567 µM
  TGI: 5.26 µM
MOLT-4 leukemia
  GI50: 0.0657 µM
  TGI: 0.821 µM and 2.26 µM
NCI-H23 lung
  GI50: 0.386 µM
  TGI: 7.56 µM
P388/ADR leukemia
  TGI: 1.63 µM
UACC-257 melanoma
  TGI: 31.3 µM
PC-3 prostate
  TGI: 23.4 µM
OVCAR-4 ovarian
  TGI: 49.2 µM
HL-60(TB) leukemia
  GI50: 0.181 µM and 0.631 µM
  TGI: 0.839 µM and 6.02 µM
DMS 273 small cell lung
  GI50: 0.403 µM
  TGI: 6.46 µM
DU-145 prostate
  TGI: 8.89 µM
T-47D breast
  TGI: 61.3 µM
DLD-1 colon
  TGI: 28.5 µM
SF-295 CNS
  GI50: 0.548 µM
  TGI: 7.26 µM
LXFL 529 NSCLC
  TGI: 46.6 µM
BT-549 breast
  TGI: 8.39 µM
SF-539 CNS
  GI50: 0.708 µM
  TGI: 6.02 µM
K-562 leukemia
  TGI: 43 µM
OVCAR-5 ovarian
  TGI: 37 µM
KM20L2 colon
  TGI: 19.8 µM
OVCAR-8 ovarian
  GI50: 0.886 µM
  TGI: 15.6 µM
MDA-MB-435
  TGI: > 100 µM
SN12C renal
  GI50: 0.718 µM
  TGI: 9.64 µM
SNB-75 CNS
  GI50: 0.438 µM
MDA-N
  TGI: > 100 µM
HOP-62 NSCLC
  GI50: 0.416 µM
  TGI: 3.3 µM
MDA-MB-231 breast
  TGI: 17.4 µM
XF 498 CNS
  GI50: 0.718 µM
  TGI: 18.2 µM
M14 melanoma
  GI50: 0.795 µM
  TGI: 17.4 µM
U251 CNS
  GI50: 0.451 µM
  TGI: 8.9 µM
UACC-62 melanoma
  GI50: 0.941 µM
  TGI: 7.78 µM
NCI-H226 lung
  GI50: 0.529 µM
  TGI: 0.985 µM and 5.18 µM
LOX IMVI melanoma
  GI50: 0.44 µM
  TGI: 10.5 µM
NCI/ADR-RES ovarian
  TGI: 45.7 µM
RXF 393 renal
  TGI: 11.4 µM
SF-268 CNS
  TGI: 27.7 µM
CAKI-1 renal
  GI50: 0.29 µM
  TGI: 4.68 µM
NCI-H460 lung
  GI50: 0.124 µM
  TGI: 4.11 µM
UO-31 renal
  GI50: 0.753 µM
  TGI: 8.72 µM
SN12K1 renal
  TGI: 12.2 µM
